The text below walks through data of patent publication US8633166B2, “Methicillin-resistant Staphylococcus aureus active metabolites” (priority 2009, dated 2014).

As usually defined, the MIC is the lowest concentration that inhibits growth of the organism.

For one assay, the system named is enterococci. In words: In vitro MIC, for enterococci. The format is cell-based. The following applies: E. faecalis and E. faecium, vancomycin-susceptible and vancomycin-resistant strains. The protocol: (§1) All test articles were dissolved in DMSO. Stock solutions were prepared at 40-fold the highest concentration in the test plate. The final concentration of DMSO in the test system was 2.5%.
(§2) The medium employed for the MIC assay was Mueller Hinton II Broth (MHB II-Becton Dickinson, #212322, Lot #9044411) for most of the organisms. MHB II was supplemented with 2% lysed horse blood (Cleveland Scientific Lot #22299-1) to accommodate the growth of Streptococcus pneumoniae, Streptococcus pyogenes and Streptococcus agalactiae. The media were prepared at 102.5% the normal weight to offset the dilution created by the addition of 5 μL drug solution to each well of the microdilution panels. […]
(§3) Plates were stacked 3 high, covered with a lid on the top plate, placed in plastic bags, and incubated at 35° C. for approximately 18 hours for most of the isolates. The Streptococcus plates were read after 20 hours of incubation. […] The MIC was read and recorded as the lowest concentration of drug that inhibited visible growth of the organism.

In another assay the test system is Staphylococcus aureus. In words: In vitro MIC, broth microdilution (CLSI). The class given is cell-based. As to the method:
as §1
(§4) The medium employed for the MIC assay was Mueller Hinton II Broth (MHB II-Becton Dickinson, #212322, Lot #9044411) for most of the organisms. MHB II was supplemented with 2% lysed horse blood (Cleveland Scientific Lot #22299-1) to accommodate the growth of Streptococcus pneumoniae, Streptococcus pyogenes and Streptococcus agalactiae. The media were prepared at 102.5% the normal weight to offset the dilution created by the addition of 5 μL drug solution to each well of the microdilution panels.
(§5) The MIC assay method followed the procedure described by the Clinical and Laboratory Standards Institute (see Clinical and Laboratory Standards Institute. Methods for Dilution Antimicrobial, Susceptibility Tests for Bacteria That Grow Aerobically; Approved Standard—Eighth Edition. CLSI document M07-A8 [ISBN 1-56238-689-1]. Clinical and Laboratory, Standards Institute, 940 West Valley Road, Suite 1400, Wayne, Pa. 19087-1898 USA, 2009) and employed automated liquid handlers to conduct serial dilutions and liquid transfers. Automated liquid handlers included the Multidrop 384 (Labsystems, Helsinki, Finland), Biomek 2000 and Multimek 96 (Beckman Coulter, Fullerton Calif.).
(§6) The wells of Columns 2-12 of standard 96-well microdilution plates (Falcon 3918) were filled with 150 μL of DMSO on the Multidrop 384. The drugs (300 μL) were dispensed into Column 1 of the appropriate row in these plates. These would become the mother plates from which the test plates (daughter plates) were prepared. The Biomek 2000 completed serial transfers through Column 11 in the mother plates. The wells of Column 12 contained no drug and were the organism growth control wells in the daughter plates. The daughter plates were loaded with 185 μL of the appropriate test media (described above) using the Multidrop 384. The daughter plates were prepared on the Multimek 96 instrument which transferred 5 μL of drug solution from each well of a mother plate to each corresponding well of each daughter plate in a single step. Therefore, the test agents were maintained in solution in 100% DMSO up until the point of being added to the final test medium.
(§7) Standardized inoculum of each organism was prepared per CLSI methods (See Clinical and Laboratory Standards Institute. Performance Standards for Antimicrobial Susceptibility Testing; Nineteenth Informational Supplement. CLSI document M100-S19 [ISBN 1-56238-690-5]. Clinical and Laboratory Standards Institute, 940 West Valley Road, Suite 1400, Wayne, Pa. 19087-1898 USA, 2009.). Suspensions were prepared in MHB to equal the turbidity of a 0.5 McFarland standard. The suspensions were diluted 1:9 in broth appropriate to the organism. The inoculum for each organism was dispensed into sterile reservoirs divided by width (Beckman Coulter), and the Biomek 2000 was used to inoculate the plates. Daughter plates were placed on the Biomek 2000 work surface reversed so that inoculation took place from low to high drug concentration. The Biomek 2000 delivered 10 μL of standardized inoculum into each well. This yielded a final cell concentration in the daughter plates of approximately 5×10^5 colony-forming-units/mL. Thus, the wells of the daughter plates ultimately contained 185 μL of broth, 5 μL of drug solution, and 10 μL of bacterial inoculum. The final concentration of DMSO in the assay plate was 2.5%.
(§8) Plates were stacked 3 high, covered with a lid on the top plate, placed in plastic bags, and incubated at 35° C. for approximately 18 hours for most of the isolates. The Streptococcus plates were read after 20 hours of incubation. The microplates were viewed from the bottom using a plate viewer. […] The MIC was read and recorded as the lowest concentration of drug that inhibited visible growth of the organism.
(Dilution methods test growth across graded concentrations, often in twofold steps.)

The subject of another assay is Streptococcus pneumoniae. In words: In vitro MIC, broth microdilution (CLSI). The following applies: MHB II with 2% lysed horse blood. The class given is cell-based. As to the method:
as §1, §4, §5, §6, §7, §8

In a further assay the test system is Enterococcus faecalis. Nature of the assay: In vitro MIC, broth microdilution (CLSI). The format is cell-based. The protocol: as §1, §4, §5, §6, §7, §8
A further assay concerns Streptococcus pyogenes. Nature of the assay: In vitro MIC, broth microdilution (CLSI). The format is cell-based. The following applies: MHB II with 2% lysed horse blood. As to the method:
as §1, §4, §5, §6, §7, §8

Another assay concerns Enterococcus faecium. In words: In vitro MIC, broth microdilution (CLSI). The format is cell-based. The protocol:
as §1, §4, §5, §6, §7, §8

In assay [1] the test system is Staphylococcus epidermidis. In words: In vitro MIC, broth microdilution (CLSI). The class given is cell-based. The protocol: as §1, §4, §5, §6, §7, §8
The test system of the next assay is Streptococcus agalactiae. In words: In vitro MIC, broth microdilution (CLSI). The class given is cell-based. The following applies: MHB II with 2% lysed horse blood. The protocol:
as §1, §4, §5, §6, §7, §8

In assay [2] the test system is methicillin resistant Staphylococcus aureus (MRSA). Nature of the assay: In vitro antimicrobial evaluation, modified CLSI (formerly NCCLS) method. The class given is cell-based. The conditions noted are these: IC50 from percent growth versus test concentration; values only in FIG. 1. The protocol:
The in vitro antimicrobial activity for the isolated glycosides is represented in FIG. 1. A modified version of CLSI (formerly NCCLS) method was used for the in vitro evaluation of test samples. Duplicate samples were transferred to 96-well microplates after diluting with 0.9% saline. The microbial cell suspensions were to give the desired target inocula after addition to the samples. Media and solvent controls were included in each assay. The IC50 was calculated by plotting percent growth versus test concentration.

A further assay has as its system streptococci. Nature of the assay: In vitro MIC, streptococci. The class given is cell-based, Streptococcus. The following applies: highest concentrations considered for MIC readings. As to the method:
as §1, §2, §3

For assay [3], the system named is Methicillin-resistant Staphylococcus aureus. Nature of the assay: In vivo MRSA assay, thigh infection in a murine model. Set-up: species or system Mice (CD-1). The following applies: vancomycin treated animals. The protocol:
The in vivo antimicrobial activity for the isolated glycosides is represented in FIGS. 2A and 2B. Mice (CD-1) were purchased from Harlan Inc. and acclimatized up to 5 days before use. Food and water were available ad libitum throughout the study. They were rendered neutropenic by two injections of cyclophosphamide (100 mg/kg) given intraperitoneally, one and four days before infection. A volume of 50 uL suspension of Methicillin-resistant Staphylococcus aureus (1.5×10^6 live organisms) was injected intramuscularly (1M) into each of the two rear thighs. Each thigh was considered as an individual data point (total of 4 data points for each treatment). These mice were randomly distributed into the control or treatment groups (n=2/group).
Treatment with the test compound (1) was initiated via the intraperitoneal route 2 hrs after thigh inoculation. Control animals were concurrently administered saline (mock treatment) or vancomycin in the same volume as those receiving compound (1). All animals were sacrificed after 48 hours by CO2 inhalation. Immediately following sacrifice, thigh tissue was collected from the animals, weighed, and homogenized in 5.0 mL of saline. Thigh muscle homogenate was then processed for microbiological assay to determine the number of MRSA cfu per gram of muscle tissue.

Another assay has as its system MRSA. The conditions noted are these: background statement; cited from earlier work.

≈ marks a conversion by molar mass, not a printed value. Bounds are passed on as bounds.

With `C[C@@H]1O[C@@H](Oc2c(-c3ccc(O)cc3)oc3cc(O)cc(O)c3c2=O)[C@H](OC(=O)/C=C\c2ccc(O)cc2)[C@H](OC(=O)/C=C\c2ccc(O)cc2)[C@H]1O` [Compound 4, kaempferol 3-O-α-L-(2″,3″-di-Z-p-coumaroyl)rhamnoside], in the assay with enterococci, the “activity against enterococci” value is reported as “inhibited multiple strains”. The MIC was more than 8 µg/mL with Staphylococcus aureus (MMX 100, CLSI QC, ATCC 29213); more than 8 µg/mL against Staphylococcus aureus (MMX 753, MSSA, CHP); more than 8 µg/mL against Staphylococcus aureus (MMX 758, MRSA, CHP); more than 8 µg/mL against Staphylococcus aureus (MMX 2055, MRSA, UCLA); more than 8 µg/mL in the assay with Staphylococcus aureus (MMX 2063, MSSA, UCLA); more than 8 µg/mL in the assay with Staphylococcus aureus (MMX 3856, MSSA, Mt. Sinai). Further, the minimum inhibitory concentration (MIC) in the assay on Staphylococcus aureus (MMX 3894, MRSA, Mt. Sinai) is more than 8 µg/mL; with Streptococcus pneumoniae (MMX 748, PRSP, CHP), more than 32 µg/mL; with Streptococcus pneumoniae (MMX 866, PSSP, CHP), more than 32 µg/mL; in the assay on Streptococcus pneumoniae (MMX 1195, CLSI QC, ATCC 49619), more than 32 µg/mL; against Streptococcus pneumoniae (MMX 3130, PSSP, UCLA), more than 32 µg/mL; in the assay on Streptococcus pneumoniae (MMX 3160, PRSP, UCLA) it was more than 32 µg/mL. The minimum inhibitory concentration (MIC) with Streptococcus pneumoniae (MMX 3937, PSSP, Mt. Sinai) is more than 32 µg/mL; in the assay with Streptococcus pneumoniae (MMX 3953, PRSP, Mt. Sinai) it was more than 32 µg/mL; in the assay on Enterococcus faecalis (MMX 101, CLSI QC, ATCC 29212), 8 µg/mL (≈ 11 µM); in the assay on Enterococcus faecalis (MMX 742, VSE, CHP), more than 8 µg/mL; against Enterococcus faecalis (MMX 3199, VSE, UCLA), more than 8 µg/mL; with Enterococcus faecalis (MMX 3821, VRE, Mt. Sinai) it was 8 µg/mL (≈ 11 µM). For the same molecule, the MIC is more than 8 µg/mL in the assay on Enterococcus faecalis (MMX 3896, VSE, Mt. Sinai); 4 µg/mL (≈ 5.52 µM) against Enterococcus faecalis (MMX 4131, VRE, CHP); 8 µg/mL (≈ 11 µM) against Enterococcus faecalis (MMX 4160, VRE, UCLA); more than 32 µg/mL against Streptococcus pyogenes (MMX 718, CHP); more than 32 µg/mL against Streptococcus pyogenes (MMX 2572, UCLA); more than 32 µg/mL against Streptococcus pyogenes (MMX 3928, Mt. Sinai). The minimal inhibitory concentration (MIC) against Enterococcus faecium (MMX 0799, VSE, CHP) is more than 8 µg/mL; with Enterococcus faecium (MMX 0845, VSE, UCLA) it was 4 µg/mL (≈ 5.52 µM); with Enterococcus faecium (MMX 1238, VRE, Mt. Sinai) it was 4 µg/mL (≈ 5.52 µM); with Enterococcus faecium (MMX 1259, VSE, Mt. Sinai), more than 8 µg/mL; in the assay with Enterococcus faecium (MMX 4024, VRE, CHP) it was more than 8 µg/mL; in the assay with Enterococcus faecium (MMX 4048, VRE, UCLA) it was more than 8 µg/mL. Also, the MIC in assay [1] (MMX 762, MRSE, CHP) was more than 8 µg/mL; in assay [1] (MMX 826, MRSE, UCLA), more than 8 µg/mL; in assay [1] (MMX 835, MSSE, UCLA) it was 8 µg/mL (≈ 11 µM); in [1] (MMX 3703, MSSE, CHP), 8 µg/mL (≈ 11 µM); in assay [1] (MMX 3752, MRSE, Mt. Sinai), more than 8 µg/mL; in assay [1] (MMX 3763, MSSE, Mt. Sinai) it was 8 µg/mL (≈ 11 µM). The MIC with Streptococcus agalactiae (MMX 3743, Mt. Sinai) is more than 32 µg/mL; against Streptococcus agalactiae (MMX 4093, UCLA), more than 32 µg/mL; against Streptococcus agalactiae (MMX 4106, CHP), more than 32 µg/mL. Further, the “in vitro activity (rank among the four compounds)” value in assay [2] is “most potent in vitro activity”. Further, the “activity against the streptococci” value in the assay with streptococci is on record as “Neither compound was active”.

Consider `CN[C@H](CC(C)C)C(=O)N[C@H]1C(=O)N[C@@H](CC(N)=O)C(=O)N[C@H]2C(=O)N[C@H]3C(=O)N[C@H](C(=O)N[C@H](C(=O)O)c4cc(O)cc(O)c4-c4cc3ccc4O)[C@H](O)c3ccc(c(Cl)c3)Oc3cc2cc(c3O[C@@H]2O[C@H](CO)[C@@H](O)[C@H](O)[C@H]2O[C@H]2C[C@](C)(N)[C@H](O)[C@H](C)O2)Oc2ccc(cc2Cl)[C@H]1O` [Vancomycin, reference compound], for which the “reduction compared to vehicle control” value in [3] worked out at 72%. Moreover, the “number of MRSA isolated from muscle tissue” value in assay [3] (intraperitoneal, 48 hours, neutropenic mice) is listed as 2.2×10^7 g of tissue. Further, the success rate in the assay on MRSA is 35-57%.
